Results as given in US5686459A, “Dioxopyrrolo pyrrole derivatives” (Hoffmann-La Roche Inc., priority 1995, dated 1997).
Where a name gives a salt, the structure may show the parent alone.

Legend:
Format in all cases: biochemical
thrombin [1] = molecular target: T1, thrombin (Homo sapiens, UniProt P00734); test: inhibition of the amidolytic activity of thrombin (chromogenic substrate H-D-Phe-Pip-Arg-paranitroaniline); details: substrate 10 or 50 μM; thrombin 0.5 nM final conc.; pH 7.8; room temperature
Procedure: The measurements were carried out on microtitre plates at room temperature. For this, in each well of the plate […] of buffer (50 mM Tris, 100 mM NaCl, 0.1% polyethylene glycol; pH 7.8) were mixed with […] of the inhibitor dissolved in DMSO and diluted in the buffer and […] of human thrombin (0.5 nM final conc.). After incubation for 10 minutes the reaction was started by the addition of the chromogenic substrate H-D-Phe-Pip-Arg-paranitroaniline (10 or 50 μM final concentration), in which Pip represents the characterizing group 2-piperidylenecarbonyl of the α-aminoacid H-Pip-OH, which is (S)-piperidine-2-carboxylic acid (or L-homoproline). The hydrolysis of the substrate was followed spectrophotometrically on a kinetic microtitre plate reader for 5 minutes.

thrombin [2] = molecular target: T1, thrombin; test: thrombin test of crude products (chromogenic substrate S-2238, 405 nm); details: crude product
Procedure: 5 g (1.5 mmol) of Fmoc-TGR resin according to H. Rink Tetrahedron Lett. 28, 3787 (1987) were shaken for 30 minutes. with a 20% solution of piperidine in DMF. Subsequently, the resin was washed with DMF. 1.19 g (3 mmol) of Fmoc-arginine, 950 mg (6 mmol) of 1-hydroxy-benzotriazole (HOBT--containing about 20% water), 570 mg of diisopropylcarbodiimide and DMF were added and the mixture was shaken for 1 hour. The resin was washed with DMF and shaken for 30 minutes with a 20% solution of piperidine in DMF. Thereafter, it was washed with DMF, isopropanol, water and methanol. Subsequently, the resin was distributed in equal portions in 30 reaction vessels, then 0.5 mmol of a carbonyl compound (a. paraformaldehyde, b. pivalaldehyde, c. benzaldehye, d. benzophenone and e. phenylpropionaldehyde) were added to in each case 6 of these vessels, whereafter to each 0.5 mmol of a maleimide (maleimide, N-methyl-, N-butyl-, N-cyclohexylmethyl-, N-phenyl- or N-benzyl-maleimide) was added such that each vessel contains a different pairing of carbonyl compound and maleimide. About 5 ml of a mixture of 150 ml of methanol and 8 ml of acetic acid were added to each vessel as the solvent and the batch was heated under reflux for 22 hours. After cooling the solvent was sucked off and the resin was washed in each case twice with dimethyl sulfoxide, isopropanol, water and isopropanol. The resin was then treated with in each case about 5 ml of a mixture of 40% trifluoroacetic acid, 50% dichloromethane, 5% water and 5% isopropanol and shaken for 2 hours. After filtration the 30 filtrate solutions were concentrated. 30 crude products were thus obtained as yellow oils. For mass spectroscopic and HPLC investigations about 0.5 mg of each oil was removed and taken up in […].

Factor Xa = Factor Xa (Homo sapiens, UniProt P00742); test: inhibition of the amidolytic activity of Factor Xa (chromogenic substrate Bz-Ile-Glu-Gly-Arg-paranitroaniline); details: substrate 167 μM final concentration
Chain of Factor Xa (P00742 235-488 limits assumed): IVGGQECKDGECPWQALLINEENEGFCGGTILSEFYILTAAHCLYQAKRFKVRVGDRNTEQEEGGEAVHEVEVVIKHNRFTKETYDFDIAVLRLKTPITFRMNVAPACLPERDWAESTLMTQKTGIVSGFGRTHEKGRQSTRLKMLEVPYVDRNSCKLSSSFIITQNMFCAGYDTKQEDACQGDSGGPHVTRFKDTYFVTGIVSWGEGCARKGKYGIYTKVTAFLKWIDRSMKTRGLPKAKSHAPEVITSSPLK
Chain of Factor Xa (P00742 41-179 partner limits assumed): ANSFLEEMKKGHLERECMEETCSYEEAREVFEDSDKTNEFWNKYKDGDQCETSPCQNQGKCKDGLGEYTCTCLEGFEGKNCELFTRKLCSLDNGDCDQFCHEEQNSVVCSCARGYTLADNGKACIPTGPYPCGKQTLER

| Ki (thrombin [1]) [nM] | SMILES | other results |
| --- | --- | --- |
| 670 | N=C(N)c1ccc([C@@H]2[C@@H]3C(=O)N(Cc4ccccc4)C(=O)[C@@H]3[C@H]3C[C@H](O)CN32)cc1 [7.A)o), (3aR,4S,7S,8aR,8bS)-4-(2-Benzyl-7-hydroxy-1,3-dioxo-decahydro-pyrrolo[3,4-a]pyrrolizin-4-yl)-benzimidamide hydrochloride] |  |
| 350 | N=C(N)c1ccc([C@@H]2[C@@H]3C(=O)N(CC4CCCCC4)C(=O)[C@@H]3[C@H]3CCCN32)cc1 (racemic) [7.A)g), (3aRS,4SR,8aRS,8bSR)-4-(2-Cyclohexylmethyl-1,3-dioxo-decahydro-pyrrolo[3,4-a]pyrrolizin-4-yl)-benzimidamide hydrochloride] |  |
|  | N=C(N)c1ccc(C2C3C(=O)N(C(Cc4ccccc4)C(N)=O)C(=O)C3C3CCCN32)cc1 (stereo not drawn) [Example 15] | inhibitory activity in the thrombin test (thrombin [2]; among the 20 crude products of Example 15): highest inhibitory activity |
|  | N=C(N)c1ccc(C2C3C(=O)N(c4ccccc4)C(=O)C3C(CO)(C(=O)O)N2CCC(N)=O)cc1 (stereo not drawn) [Example 14 p), 3-hydroxymethyl-5-phenyl-1-(4-carbamimidoyl-phenyl)-2-(2-carbamoyl-ethyl)-4,6-dioxo-octahydro-pyrrolo[3,4-c]pyrrole-3-carboxylic acid] | inhibitory activity (determined according to Example 12) (thrombin [2]; among the products of Example 14): highest inhibitory activity |
| 440 | N=C(N)c1ccc([C@H]2[C@H]3C(=O)N(Cc4ccc5c(c4)OCO5)C(=O)[C@H]3[C@@H]3CSCN32)cc1 (racemic) [Example 7.A)i), (5RS,5aSR,8aRS,8bRS)-4-[7-(Benzo[1,3]dioxol-5-ylmethyl)-6,8-dioxo-octahydro-pyrrolo[3',4':3,4]pyrrolo[1,2-c]thiazol-5-yl]-benzimidamide hydrochloride] |  |
|  | N=C(N)NCCCC1(C(N)=O)NC(c2ccccc2)C2C(=O)N(c3ccccc3)C(=O)C21 (stereo not drawn) [Example 12 m), 3,5-diphenyl-1-(3-guanidino-propyl)-4,6-dioxo-octahydro-pyrrolo[3,4-c]pyrrole-1-carboxamide] | inhibitory activity in the thrombin test (thrombin [2]; among the named cycloadducts of Example 12): greatest inhibitory activity |
| 90 | N=C(N)c1ccc([C@@H]2[C@@H]3C(=O)N(Cc4ccc5c(c4)OCO5)C(=O)[C@@H]3[C@H]3CCCN32)cc1 (racemic) [4.A)g), (3aRS,4SR,8aRS,8bSR)-4-[2-(Benzo[1,3]dioxol-5-ylmethyl)-1,3-dioxo-decahydro-pyrrolo[3,4-a]pyrrolizin-4-yl]-benzimidamide hydrochloride] |  |
|  | N=C(N)c1ccc([C@@H]2N[C@](COCc3ccccc3)(C(=O)O)[C@@H]3C(=O)N(Cc4ccc(N)cc4)C(=O)[C@@H]32)cc1 (racemic) [Example 19, (1RS,3RS,3aSR,6aRS)-5-(4-amino-benzyl)-1-(benzyloxy-methyl)-3-(4-carbamimidoyl-phenyl)-4,6-dioxo-octahydro-pyrrolo[3,4-c]pyrrole-1-carboxylic acid hydrochloride] | Ki (Factor Xa): 76 nM |
|  | CSCCC1(C(=O)O)NC(c2ccc(C(=N)N)cc2)C2C(=O)N(CC3CCCCC3)C(=O)C21 (stereo not drawn) [Example 13 n), 5-cyclohexylmethyl-1-(2-methylsulfanyl-ethyl)-3-(4-carbamimidoyl-phenyl)-4,6-dioxo-octahydro-pyrrolo[3,4-c]pyrrole-1-carboxylic acid] | inhibitory activity in the thrombin test (thrombin [2]; among the named cycloadducts of Example 13): greatest inhibitory activity |
| 670 | C[C@H]1[C@@H]2C(=O)N(Cc3ccccc3)C(=O)[C@@H]2[C@H](c2ccc(C(=N)N)cc2)N1C (racemic) [4.A)a), (1RS,3SR,3aRS,6aSR)-4-(5-Benzyl-2,3-dimethyl-4,6-dioxo-octahydro-pyrrolo[3,4-c]pyrrol-1-yl)-benzimidamide hydrochloride] |  |
| 110 | CCCCN1C(=O)[C@@H]2[C@H](C1=O)[C@H]1CCCN1[C@@H]2c1ccc(NC(=N)N)cc1 (racemic) [Example 9, (3aRS,4SR,8aRS, 8bSR)-N-[4-(2-Butyl-1,3-dioxo-decahydro-pyrrolo[3,4-a]pyrrolizin-4-yl)-phenyl]-guanidinium nitrate] |  |
|  | N=C(N)c1ccc([C@@H]2N[C@](COCc3ccccc3)(C(=O)O)[C@@H]3C(=O)N(Cc4ccc([N+](=O)[O-])cc4)C(=O)[C@@H]32)cc1 (racemic) [Example 18, (1RS,3RS,3aSR,6aRS)-1-(benzyloxy-methyl)-3-(4-carbamimidoyl-phenyl)-5-(4-nitro-benzyl)-4,6-dioxo-octahydro-pyrrolo[3,4-c]pyrrole-1-carboxylic acid hydrochloride] | Ki (Factor Xa): 98 nM |
